Consider 41 compounds from patent publication US4387238A, “Epoxysuccinamic acid compounds” (Taisho Pharmaceutical Co., Ltd., priority 1978, dated 1983).

The assay addresses T1, papain (Carica papaya, UniProt P00784).
T1 construct: purchased Sigma Chem. Co
T1 sequence (P00784 134-345): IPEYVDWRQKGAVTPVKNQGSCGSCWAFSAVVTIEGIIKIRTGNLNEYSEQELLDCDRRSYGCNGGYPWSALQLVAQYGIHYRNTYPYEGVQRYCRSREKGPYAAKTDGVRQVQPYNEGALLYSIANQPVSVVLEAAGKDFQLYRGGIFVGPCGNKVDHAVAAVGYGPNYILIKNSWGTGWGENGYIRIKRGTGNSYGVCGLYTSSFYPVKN
Briefly: Papain inhibitory activity (milk casein proteolysis). The assay is classed as biochemical. On the set-up: unit not given beside the values. Particulars: amount of inhibitor for 50% inhibition; pH 6.8, 40° C., casein substrate. As to the method: Papain inhibitory activity of the compounds of the present invention was assayed as follows: To 0.5 ml of a solution of papain (80 μg/ml, Sigma Chem. Co., 2x, cry.), were added 0.25 ml of 40 mM cysteine dissolved in 20 mM disodium ethylenediamine tetraacetic acid solution adjusted pH to 6.8 with sodium hydroxide and 0.25 ml of 33 mM phosphate buffer (pH 6.8) with or without inhibitor. After incubation for 15 minutes at 40° C., the resulting mixture was added to 5 ml of 1% milk casein solution in the same buffer as described above, and further incubated for 10 minutes at 40° C. Then the mixture was mixed with 5 ml of 0.44 M trichloroacetic acid solution and followed by filtration with a sheet of Toyo filter paper No. 4.
The extinction of the filtrate was read at 280 nm. The percent inhibition was calculated from the formula, 100×(B-A)/B; wherein B stands for the absorbance without inhibitor and A for the absorbance with inhibitor. The compound Nos. in Table 2 are as defined in Examples as described hereinafter.
Turning to `CCCCOC(=O)[C@H]1O[C@@H]1C(=O)Nc1ccccc1` (relative stereo) [Compound No. 52, butyl N-phenyl-2,3-epoxysuccinamate], the ID50 is 5.32 γ.

For the compound `O=C(Nc1ccccc1)[C@H]1O[C@@H]1C(=O)OCC1CC=CCC1` (relative stereo) [Compound No. 53, 3'-cyclohexenemethyl N-phenyl-2,3-epoxysuccinamate], the ID50 is given as 1.63 γ.

In the case of `CCNC(=O)[C@H]1O[C@@H]1C(=O)OC` (relative stereo) [Compound No. 54, methyl N-ethyl-2,3-epoxysuccinamate], the ID50 is 10.07 γ.

Regarding `CCOC(=O)[C@H]1O[C@@H]1C(N)=O` (relative stereo) [Compound No. 55, ethyl 2,3-epoxysuccinamate], the ID50 is 3.14 γ.

Regarding `CCOC(=O)[C@H]1O[C@@H]1C(=O)N(CC(C)C)CC(C)C` (relative stereo) [Compound No. 56, ethyl N,N-diisobutyl-2,3-epoxysuccinamate], the ID50 is on record as 148.80 γ.

`CCOC(=O)[C@H]1O[C@@H]1C(=O)N(CC)CC` (relative stereo) [Compound No. 57, ethyl N,N-diethyl-2,3-epoxysuccinamate]: the ID50 is on record as 46.30 γ.

For `CCOC(=O)[C@H]1O[C@@H]1C(=O)N(C)Cc1ccccc1` (relative stereo) [Compound No. 58, ethyl N-methyl-N-benzyl-2,3-epoxysuccinamate], the ID50 is reported as 231.50 γ.

For the compound `CCCN(C(=O)[C@H]1O[C@@H]1C(=O)OCC)c1ccccc1` (relative stereo) [Compound No. 59, ethyl N-propyl-N-phenyl-2,3-epoxysuccinamate], the ID50 is recorded as 154.50 γ.

Regarding `COC(=O)[C@H]1O[C@@H]1C(=O)NC1CCCCC1` (relative stereo) [Compound No. 61, Methyl N-cyclohexyl-2,3-epoxysuccinamate], the ID50 is given as 19.65 γ.

Regarding `CCCOC(=O)[C@H]1O[C@@H]1C(=O)Nc1ccccc1` (relative stereo) [Compound No. 62, Propyl N-phenyl-2,3-epoxysuccinamate], the ID50 is reported as 6.16 γ.

As for `CCCOC(=O)[C@H]1O[C@@H]1C(=O)NC1CCCC1` (relative stereo) [Compound No. 63, Propyl N-cyclopentyl-2,3-epoxysuccinamate], the ID50 is 4.23 γ.

As to `CCCOC(=O)[C@H]1O[C@@H]1C(=O)NC(C)C` (relative stereo) [Compound No. 64, Propyl N-isopropyl-2,3-epoxysuccinamate], the ID50 is reported as 8.32 γ.

On to `CCNC(=O)[C@H]1O[C@@H]1C(=O)OC(C)C` (relative stereo) [Compound No. 65, Isopropyl N-ethyl-2,3-epoxysuccinamate], for which the ID50 is on record as 13.65 γ.

For `CC(C)NC(=O)[C@H]1O[C@@H]1C(=O)OCc1ccccc1` (relative stereo) [Compound No. 67, Benzyl N-isopropyl-2,3-epoxysuccinamate], the ID50 is 5.14 γ.

For the compound `CCOC(=O)[C@H]1O[C@@H]1C(=O)NCCCCNC(=O)OCc1ccccc1` (relative stereo) [Compound No. 68, ethyl N-carbobenzoxyaminobutyl-2,3-epoxysuccinamate], the ID50 is 24.04 γ.

Consider `CCOC(=O)[C@H]1O[C@@H]1C(=O)NCCCCCNC(=O)OCc1ccccc1` (relative stereo) [Compound No. 69, ethyl N-carbobenzoxyaminopentyl-2,3-epoxysuccinamate], for which the ID50 is 12.05 γ.

Take `COC(=O)[C@H]1O[C@@H]1C(=O)N1CCOCC1` (relative stereo) [Compound No. 70, Methyl N-oxydiethylene-2,3-epoxysuccinamate]: the ID50 is recorded as 90.25 γ.

For the compound `C=CCOC(=O)[C@H]1O[C@@H]1C(=O)NCCc1ccccc1` (relative stereo) [Compound No. 71, Allyl N-phenethyl-2,3-epoxysuccinamate], the ID50 is reported as 4.13 γ.

Turning to `CN1CCN(C(=O)[C@H]2O[C@@H]2C(=O)OCC2CCCC2)CC1` (relative stereo) [Compound No. 72, Cyclopentanemethyl N-N'-methylaminodiethylene-2,3-epoxysuccinamate], the ID50 is listed as 146.51 γ.

With `CCOC(=O)[C@@H]1O[C@H]1C(=O)N1CCCC1` (relative stereo) [Compound No. 73, ethyl N-tetramethylene-2,3-epoxysuccinamate], the ID50 is recorded as 128.50 γ.

As to `C#CCOC(=O)[C@@H]1O[C@H]1C(=O)N1CCCCC1` (relative stereo) [Compound No. 74, propargyl N-pentamethylene-2,3-epoxysuccinamate], the ID50 is listed as 39.62 γ.

Regarding `CCOC(=O)[C@@H]1O[C@H]1C(=O)N1CCCC1C` (relative stereo) [Compound No. 75, ethyl N-1'-methyltetramethylene-2,3-epoxysuccinamate], the ID50 was 130.10 γ.

As for `CCOC(=O)[C@@H]1O[C@H]1C(=O)N1CCCCC1` (relative stereo) [Compound No. 77, Ethyl N-pentamethylene-2,3-epoxysuccinamate], the ID50 is recorded as 145.21 γ.

Regarding `O=C(OCc1ccccc1)[C@@H]1O[C@H]1C(=O)N1CCCCC1` (relative stereo) [Compound No. 78, Benzyl N-pentamethylene-2,3-epoxysuccinamate], the ID50 was 34.23 γ.

As for `O=C(OCCCC1CCCC1)[C@@H]1O[C@H]1C(=O)N1CCCC1` (relative stereo) [Compound No. 79, 3'-Cyclopentanepropyl N-tetramethylene-2,3-epoxysuccinamate], the ID50 was 36.25 γ.

With `CCOC(=O)[C@@H]1O[C@H]1C(=O)Nc1ccccc1C(=O)O` (relative stereo) [Compound No. 81, ethyl N-2'-carboxyphenyl-2,3-epoxysuccinamate], the ID50 is on record as 36.76 γ.

With `CCOC(=O)[C@@H]1O[C@H]1C(=O)Nc1cc(Cl)ccc1C(=O)O` (relative stereo) [Compound No. 82, ethyl N-2'-carboxy-5'-chlorophenyl-2,3-epoxysuccinamte], the ID50 is recorded as 277.80 γ.

Regarding `CCOC(=O)[C@@H]1O[C@H]1C(=O)NCC1CC1` (relative stereo) [Compound No. 83, ethyl N-cyclopropanemethyl-2,3-epoxysuccinamate], the ID50 is 130.20 γ.

As to `CNC(=O)[C@H]1O[C@@H]1C(=O)Oc1ccccc1` (relative stereo) [Compound No. 84, phenyl N-methyl-2,3-epoxysuccinamate], the ID50 is recorded as 12.65 γ.

Take `CCOC(=O)[C@@H]1O[C@H]1C(=O)N(C)C` (relative stereo) [Compound No. 85, ethyl N,N-dimethyl-2,3-epoxysuccinamate]: the ID50 is 39.50 γ.

Take `CNC(=O)[C@@H]1O[C@H]1C(=O)OCCC(C)C` (relative stereo) [Compound No. 89, Isoamyl N-methyl-2,3-epoxysuccinamate]: the ID50 is listed as 14.81 γ.

Take `CC(C)CCOC(=O)[C@@H]1O[C@H]1C(=O)N(C)C` (relative stereo) [Compound No. 90, Isoamyl N,N-dimethyl-2,3-epoxysuccinamate]: the ID50 is listed as 50.25 γ.

With `CNC(=O)[C@H]1O[C@@H]1C(=O)OCc1ccccc1` (relative stereo) [Compound No. 91, Benzyl N-methyl-2,3-epoxysuccinamate], the ID50 was 9.68 γ.

As to `CCOC(=O)[C@@H]1O[C@H]1C(=O)N1CCCCC1C(=O)OCc1ccccc1` (relative stereo) [Compound No. 92, Ethyl N-1'-carbobenzoxypentamethylene-2,3-epoxysuccinamate], the ID50 is 120.10 γ.

Regarding `CC(C)OC(=O)[C@@H]1O[C@H]1C(=O)Nc1ccccc1` (relative stereo) [Compound No. 93, isopropyl N-phenyl-2,3-epoxysuccinamate], the ID50 is 21.55 γ.

In the case of `O=C(Nc1ccccc1)[C@@H]1O[C@H]1C(=O)OCC1CCCCC1` (relative stereo) [Compound No. 94, cyclohexanemethyl N-phenyl-2,3-epoxysuccinamate], the ID50 was 1.51 γ.

With `O=C(O)[C@@H]1O[C@H]1C(=O)Nc1ccccc1` (relative stereo) [Compound No. 95, potassium N-phenyl-2,3-epoxysuccinamate], the ID50 is 0.330 γ.

Take `O=C(O)[C@@H]1O[C@H]1C(=O)NCc1ccccc1` (relative stereo) [Compound No. 96, potassium N-benzyl-2,3-epoxysuccinamate]: the ID50 was 0.158 γ.

As for `CC(C)CCNC(=O)[C@H]1O[C@@H]1C(=O)O` (relative stereo) [Compound No. 97, potassium N-isoamyl-2,3-epoxysuccinamate], the ID50 is listed as 0.266 γ.

In the case of `O=C(O)[C@@H]1O[C@H]1C(=O)NC1CCCCC1` (relative stereo) [Compound No. 100, sodium N-cyclohexyl-2,3-epoxysuccinamate], the ID50 is given as 0.231 γ.

With `O=C(O)[C@@H]1O[C@H]1C(=O)N1CCCCC1` (relative stereo) [Compound No. 101, Potassium N-pentamethylene-2,3-epoxysuccinamate], the ID50 is listed as 4.05 γ.
